Test results reported in patent publication US20190201494A1, “COMPOSITIONS AND METHODS FOR TREATING NICOTINE WITHDRAWAL” (STC UNM, priority 2016, published 2019).
Entries after “also recorded” stand apart in the source; their conditions may differ.

System: overnight abstinent smokers
Experiment: Questionnaire on Smoking Urges Brief ratings, overnight abstinence with Trier Social Stress Test (Example 1, parallel study)
Type: in vivo, human
Procedure: Session 2 methodology and results are presented in this publication.
Subjects started their overnight abstinence at 8 PM the night before reporting to the University of New Mexico Clinical and Translational Science Center. At 8 AM the following day, abstinence from smoking was confirmed with a CO reading on a coVita piCO+ breathalyzer less than 50% of their baseline CO recorded at intake. […] Exposure to nicotine was analyzed by quantitative liquid chromatography-tandem mass spectrometry. Cutoff for nicotine was 2 ng/mL for nicotine.
Following negative urine drug and pregnancy tests, at 8:30 AM, subjects completed their morning assessment of smoking urges and mood. A salivary cortisol sample was also taken at this time. They were then provided breakfast (a slice of banana bread, one apple, and two cheese sticks), which they had to eat entirely. The rest of the morning, subjects watched and read emotionally neutral movies and literature. At 11:45 AM, a study nurse inserted the intravenous line, completed a point-of-care (POC) glucose check and nares assessment.
Intranasal spray administration of insulin or placebo occurred at 12:30 PM. The purpose of the spacing time between morning check-in and nasal spray administration was stabilization of postprandial insulin levels. In a randomized fashion, the study nurse administered one spray in each nostril every three minutes for the total of six sprays of either insulin or placebo. Instructions to perform the Trier Social Stress Test were given at 13:20, and speech delivery occurred 13:30. Briefly, the Trier Social Stress Test^13 is a standardized laboratory stressor consisting of a free speech and a mental arithmetic task in front of an audience. Participants were introduced to the task and instructed to prepare a 5-minute presentation in which they were to promote their candidacy for a job. The speech was delivered after a 10-minute preparation period. Thereafter, participants were introduced to the mental arithmetic task, also standing in front of the audience and a self-projecting television screen. Subjects were required to count backwards from 2023 in steps of 17 as fast and accurately as possible for five minutes; upon making a mistake, subjects were asked to stop and start again at 2023. At every post-stress timepoint (13:40, 13:50, 14:00, 14:10, and 14:40), study nurses checked POC glucose to ensure euglycemia. After the last time point at 14:40, subjects ate a snack, had their glucose level checked, received another nares exam, and were discharged from the clinic at 16:00.
Subjective measures included the Questionnaire on Smoking Urges (QSU) Brief Form and Positive and Negative Affect Schedule (PANAS). Urges to smoke were rated using the 10-item QSU Brief Form^14 that consists of 10-questions. The answers are scored from 1 (strongly disagree) to 7 (strongly agree). These questions are the basis for the two factor derived subscales. Factor 1 subscale reflects a strong desire and intention to smoke with smoking perceived as rewarding. Factor 2 subscale reflects an anticipation of relief from negative affect with an urgent desire to smoke. Study data analysis included evaluations of both factors. The PANAS (Watson et al., 1988. J Pers Soc Psychol 54(6):1063-1070) consists of 10 negative and 10 positive mood terms rated on five-point Likert-type response scales from 1 (very slightly or not at all) to 5 (extremely). Positive and negative scale scores each range between 10 and 50. The PANAS was chosen as a composite measure of self-reported positive and negative affect. Subjective measures were taken at 08:30, 12:20, 13:00, 13:40, 13:50, 14:00, 14:10 and 14:40.
Placebo contained normal saline (0.9% NaCl). The product was prepared in a biosafety cabinet 30 minutes before administration. Insulin or placebo was placed in a 10 mL amber glass bottle (Gerresheimer AG, Düsseldorf, Germany), which was capped with a 10 mg sterile nasal pump (Aero Pump GmbH, Hochheim, Germany). […]

intranasal insulin: bulk human Regular insulin (U100 Novolin R, Novo Nordisk US), 100 IU/ml, six nasal sprays delivering 60 IU
Smoking urges / nicotine cravings (Questionnaire on Smoking Urges Brief) compared to placebo (60 IU intranasal, overnight abstinence, through Trier Social Stress Test, p≤0.05): decreased significantly; also recorded: significant reduction of nicotine cravings | Smoking urges, treatment×time interaction, b (60 IU vs placebo, SE(b)=0.032, z=1.93, p≤0.05): 0.064 | Smoking urges, main effect of treatment, b (60 IU vs placebo, SE(b)=4.81, z=1.39, p=0.16, not significant): 6.66 | QSU-Brief Factor 2 (anticipation of relief from negative affect) compared to placebo (60 IU, overnight abstinence, interaction non-significant): no effect; also recorded: not Factor 2 scale | QSU-Brief Factor 1 (strong desire and intention to smoke) compared to placebo (60 IU, overnight abstinence, p≤0.05): overall decrease in smoking urges was driven by intranasal insulin's effect on Factor 1 | QSU-Brief Factor 1 (strong desire and intention to smoke) compared to placebo (60 IU, overnight abstinence, p≤0.05, listed as Intranasal insulin): significantly decreased | Duration of effect on QSU-Brief Factor 1 (60 IU, detected immediately following treatment administration): ≥ 100 min | QSU-Brief Factor 2, treatment×time interaction, b (SE(b)=0.01, z=1.48, p=0.14): 0.02 | QSU-Brief Factor 1, treatment×time interaction, b (SE(b)=0.018, z=2.15, p≤0.05): 0.039 | QSU-Brief Factor 2, main effect of treatment, b (SE(b)=2.37, z=1.58, p=0.11): 3.76 | QSU-Brief Factor 1, main effect of treatment, b (SE(b)=2.61, z=1.36, p=0.17): 3.55
